Values of other authors as cited in PMC9576820 (The Journal of membrane biology, 2022).

Tested on: host cells, proteases, serum proteins

RRGWALRLVLAY [ARVA]
inhibition of antimicrobial activity by host factors: potently inhibited by host cell binding, proteolysis, and serum protein binding
